The text below walks through data of patent US20150232420A1, “TRANSGLUTAMINASE TG2 INHIBITORS, PHARMACEUTICAL COMPOSITIONS, AND METHODS OF USE THEREOF” (priority 2012, published 2015).

Where two headings read alike, the source gives them in different places.

Series [1] in a line: Liver microsomal stability (human). It is filed as in vitro ADME. The following applies: for metabolic stability in liver microsomal stability testing: human, in words; for microsomal CLint at 1 μM: pooled liver microsomes, pH 7.4, human liver microsomes, 0.25 mg protein/mL, NADPH, read-out: hLM Clint. How it is done:
(§1) Incubations of test compound (1 μM initial concentration, n=2) were carried out with pooled hepatic liver microsomes (0.25 mg protein/mL in 0.1 M phosphate buffer pH7.4). NADPH (1 mM) was added to initiate the reactions. The incubations were performed at 37° C. Samples (100 μL) were taken from the incubation at 0, 5, 10, 20 and 40 min and added to 100 μL of acetonitrile containing carbamazepine as analytical internal standard, to terminate the reaction. Samples were centrifuged and the supernatant fractions analyzed using LC-MS/MS.
(§2) For all incubations, the instrument response (i.e. chromatographic peak area or peak height, normalized by internal standard), at each time-point were referenced to the zero time-point samples (as 100%) in order to determine the percentage of compound remaining at that time-point. Plots of the natural logarithm (Ln) of the percent of parent remaining for each compound, versus time, were used to determine the half-life in the incubation of interest.
(§3) Half-life values (t1/2) were calculated from the relationship: t1/2 (min)=−0.693/λ where λ was the slope of the Ln concentration versus time curve.
For incubations in hepatic liver microsomes, the in vitro intrinsic clearance, Clint (μL/min/mg microsomal protein), was calculated using the following formula:
Clint=(0.693/t1/2 microsomal)*(ml incubation/mg microsomal protein)*(mg microsomal protein/g liver)*(g liver/kg body weight)
Background: Microsomes from liver hold many membrane-bound enzymes, among them those of drug oxidation.

The nature of a further series: Plasma stability (mouse). It is filed as in vitro ADME. The following applies: pooled plasma. How it is done:
(§4) Incubations of test compound (1 μM initial concentration, n=2) were carried out with pooled plasma or BSA (45 mg/mL in 0.1 M phosphate buffered saline pH 7.4). The incubations were performed at 37° C. Samples (50 μL) were obtained from the incubation at 0, 10, 30, 120, 240, 360 and 1440 min, and added to 150 μL of acetonitrile containing carbamazepine as analytical internal standard to terminate the reaction. Samples were centrifuged and the supernatant fractions analyzed using LC-MS/MS.
as §2, §3

A further series concerns the target T1, P-glycoprotein (P-gp) (Homo sapiens, UniProt P08183).
T1 construct: host or cells: MDCKII (MDR1-MDCKII)
Briefly: Effective efflux ratio in MDCK-MDR1. It is filed as in vitro ADME. The conditions noted are these: for active efflux via P-gp: MDCK-MDR1 transfected cell line, in words; for MDCK-MDR1 EER: effective efflux ratio, 10 μM. As to the method:
(§5) The MDR1-MDCKII and wild type MDCKII cell lines were cultured in accordance with the guidelines provided by Solvo Biotechnology. Both wild-type MDCK and MDR1-MDCK cells were seeded at a cell density of 2.3×10^5 cells/well into 24-well Transwell plates and cultured for three days to form monolayers. Test compound was loaded into the donor compartments of the Transwell plate (24-well) bearing MDR1-MDCK or wild type MDCK monolayers. Test compound was added to either the apical or basolateral chambers of the Transwell plate assembly at a concentration of 10 μM in Hanks' Balanced Salt Solution containing 25 mM HEPES (pH 7.4). Lucifer Yellow was added to the apical buffer in all wells and its permeation monitored to assess integrity of the cell layer. As Lucifer Yellow (LY) cannot freely permeate lipophilic barriers, a high degree of LY transport indicates poor integrity of the cell layer and wells with LY permeability >100 nm/s are rejected.
P-glycoprotein (P-gp) is one of the main efflux transporters in brain; the potential for compound 1 and compound 2 to be effluxed by P-gp was assessed in an MDCK-MDR1 transfected cell line.

A further series is described as follows: kinetic solubility assay. The conditions noted are these: for solubility in a kinetic solubility assay: in words; for Aq. Sol.: kinetic solubility. It is filed as physicochemical.
A short description of a further series: Plasma stability (human). It is filed as in vitro ADME. The conditions noted are these: pooled plasma. How it is done: as §4, §2, §3
Series [2] in a line: Permeability in wild type MDCK monolayers. It is filed as in vitro ADME. The conditions noted are these: dog; wild type MDCK, apical to basolateral, 10 μM, pH 7.4; read-out: MDCK-WT Papp A-B. As to the method:
as §5

The subject of series [3] is wild type MDCKII cell line. Briefly: Permeability in wild type MDCK monolayers. It is filed as in vitro ADME. The conditions noted are these: MDCK study; in words. As to the method:
as §5

The next series deals with T2, human TG2 (Homo sapiens, UniProt P21980).
T2 sequence (P21980 1-687): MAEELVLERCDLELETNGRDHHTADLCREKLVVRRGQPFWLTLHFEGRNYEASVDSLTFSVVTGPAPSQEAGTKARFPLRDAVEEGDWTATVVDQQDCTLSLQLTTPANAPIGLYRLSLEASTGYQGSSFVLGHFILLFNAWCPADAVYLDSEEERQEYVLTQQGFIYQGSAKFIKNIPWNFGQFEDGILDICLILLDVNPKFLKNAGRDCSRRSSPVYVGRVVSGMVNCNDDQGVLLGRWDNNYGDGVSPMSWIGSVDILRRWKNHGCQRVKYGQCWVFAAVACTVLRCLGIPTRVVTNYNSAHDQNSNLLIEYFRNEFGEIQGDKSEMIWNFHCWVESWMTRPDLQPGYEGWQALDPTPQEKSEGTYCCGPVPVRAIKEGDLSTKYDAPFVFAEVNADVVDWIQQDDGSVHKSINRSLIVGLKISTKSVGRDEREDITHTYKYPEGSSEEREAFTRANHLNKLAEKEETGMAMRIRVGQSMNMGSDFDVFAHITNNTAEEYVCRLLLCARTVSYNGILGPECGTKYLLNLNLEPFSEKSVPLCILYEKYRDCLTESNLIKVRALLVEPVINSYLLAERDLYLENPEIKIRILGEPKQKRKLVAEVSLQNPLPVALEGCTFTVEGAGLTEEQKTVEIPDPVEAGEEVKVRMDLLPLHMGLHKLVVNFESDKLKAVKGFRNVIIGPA
The series is described as follows: fluorescent screening assay for human TG2. It is filed as biochemical. As to the method:
The fluorescent screening assay for human TG2 was performed as described herein: Assay conditions were 20 nM TG2, 8 μM N,N-dimethylated Casein (NMC) and 16 μM K×D (used for all transglutaminase assays) in 25 mM Hepes, pH 7.4, 250 mM NaCl, 2 mM MgCl2, 0.5 mM CaCl2, 0.2 mM DTT, 0.05% Pluronic F-127 at 37° C. A time point was taken with a microplate reader (Safire or Ultra, Tecan; ex: 350 nm, em: 535 nm) every 3 minutes for up to 2 hours and the initial linear reaction progress was used to determine the reaction velocity as a measure for enzyme activity. Assay conditions were identical for human TG6 and similar for human TG1 and mouse TG2 apart from enzyme concentration (mTG2 at 5 nM; TG1 at 10 nM) and CaCl2 concentration (0.2 mM for mTG2; 0.05 mM for TG1). Factor XIIIa was activated using 0.1 μg/μl thrombin (Sigma) in 35 mM Tris pH 8.0 for 20 min at 30° C. and the transamidation reaction was performed with 20 nM Factor XIIIa in 50 mM Tris pH 8.0, 1.25 mM CaCl2, 0.05% Pluronic, 0.2 mM DTT. TG3 was activated with 0.02 μg/μl thrombin under the same conditions as Factor XIIIa and assay conditions were 10 nM TG3 in 50 mM Hepes, pH 8, 20 mM CaCl2, 0.2 mM DTT, 0.05% Pluronic F-127.

Series [4] is described as follows: Liver microsomal stability (mouse). It is filed as in vitro ADME. How it is done:
as §1, §2, §3
For incubations in hepatic liver microsomes, the in vitro intrinsic clearance, Clint (μL/min/mg microsomal protein), was calculated using the following formula: […]

The mark [5] stands for this setting: mouse plasma, 1 μM, 37° C., read-out: Mouse Plasma T1/2.
Setting [6] is: read-out: half-life in mouse plasma.
The mark [7] stands for this setting: human plasma, 1 μM, 37° C., read-out: Human Plasma T1/2.
Where [8] appears, read: read-out: half-life in human plasma.
Where [9] appears, read: Table 7, 20 nM TG2, 37° C., read-out: IC50.

T1 sequence (P08183 whole entry): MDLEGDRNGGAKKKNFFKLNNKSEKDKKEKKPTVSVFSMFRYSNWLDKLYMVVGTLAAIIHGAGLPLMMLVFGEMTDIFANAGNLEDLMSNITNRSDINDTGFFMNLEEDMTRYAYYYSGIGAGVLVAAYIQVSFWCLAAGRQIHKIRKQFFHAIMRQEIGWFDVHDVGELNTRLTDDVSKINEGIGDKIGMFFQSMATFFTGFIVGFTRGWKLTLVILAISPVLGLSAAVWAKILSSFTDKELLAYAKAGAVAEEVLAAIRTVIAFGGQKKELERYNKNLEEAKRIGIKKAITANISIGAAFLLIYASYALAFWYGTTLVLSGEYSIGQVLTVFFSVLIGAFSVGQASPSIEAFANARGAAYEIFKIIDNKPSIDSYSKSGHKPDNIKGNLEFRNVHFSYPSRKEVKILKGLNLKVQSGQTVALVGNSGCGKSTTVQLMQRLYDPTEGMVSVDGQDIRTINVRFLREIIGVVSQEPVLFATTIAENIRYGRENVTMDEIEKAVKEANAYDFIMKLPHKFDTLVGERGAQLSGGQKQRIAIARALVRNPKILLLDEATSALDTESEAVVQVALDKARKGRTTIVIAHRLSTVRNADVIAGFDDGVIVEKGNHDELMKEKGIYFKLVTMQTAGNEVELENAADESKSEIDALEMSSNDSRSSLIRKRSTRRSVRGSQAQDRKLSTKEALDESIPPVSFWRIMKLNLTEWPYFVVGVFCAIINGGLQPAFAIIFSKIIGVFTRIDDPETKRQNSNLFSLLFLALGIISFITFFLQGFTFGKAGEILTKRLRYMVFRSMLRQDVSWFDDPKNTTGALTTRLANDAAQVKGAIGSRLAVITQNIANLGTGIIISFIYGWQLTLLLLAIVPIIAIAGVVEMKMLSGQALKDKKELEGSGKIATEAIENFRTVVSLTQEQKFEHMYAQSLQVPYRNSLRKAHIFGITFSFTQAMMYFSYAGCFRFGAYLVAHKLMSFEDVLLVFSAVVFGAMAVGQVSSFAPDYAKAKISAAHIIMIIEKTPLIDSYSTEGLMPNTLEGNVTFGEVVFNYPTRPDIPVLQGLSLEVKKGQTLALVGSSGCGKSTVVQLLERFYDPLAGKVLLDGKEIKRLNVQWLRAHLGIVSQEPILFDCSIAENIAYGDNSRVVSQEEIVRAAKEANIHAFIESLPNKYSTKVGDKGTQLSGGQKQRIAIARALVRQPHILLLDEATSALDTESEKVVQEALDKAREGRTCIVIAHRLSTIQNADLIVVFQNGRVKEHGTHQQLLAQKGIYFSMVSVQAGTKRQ

One may read the Papp A→B as the apparent permeability from the apical to the basolateral side of a cell layer. The IC50 is the concentration that inhibits the measured activity by half. In the case of `C=CC(=O)NCCCC[C@H](NC(=O)OCc1ccccc1)C(=O)N1CCN(c2ccccc2Cl)CC1` [compound 1, benzyl N-[(2S)-1-[4-(2-chlorophenyl)piperazin-1-yl]-1-oxo-6-(prop-2-enamido)hexan-2-yl]carbamate], the “metabolic stability in liver microsomal stability testing” value in series [1] is “poor”. The microsomal CLint at 1 μM in series [1] is > 1390 µL/min/mg. The half-life at 1 μM in the series “Plasma stability (mouse)” (setting [5]), in “Plasma stability (mouse)” (setting [6]), in “Plasma stability (human)” (setting [7]) and in “Plasma stability (human)” (setting [8]) was > 24 h throughout. In addition, the “active efflux via P-gp” value on P-glycoprotein (P-gp) was “high active efflux”. Further, the “MDCK-MDR1 EER” value at P-glycoprotein (P-gp) amounted to 118. In addition, the “solubility in a kinetic solubility assay” value in “kinetic solubility assay” is on record as “good solubility”. Also, the “Aq. Sol.” value in the series “kinetic solubility assay” turned out to be 0.87 mg/mL. The apparent permeability from apical to basolateral (Papp A→B) at 10 μM in [2] came to 142 nm/s. In addition, the permeability entry in series [3] is “good permeability”. Besides, the IC50 is < 0.1 µM on human TG2 (setting [9]) and 0.014 µM at human TG2 (Table 8, read-out: TG2 IC50).
`C=CC(=O)NCCCC[C@H](NC(=O)Cc1ccccc1)C(=O)N1CCN(c2cccc(C)n2)CC1` [compound 2, N-[(5S)-6-[4-(6-methylpyridin-2-yl)piperazin-1-yl]-6-oxo-5-(2-phenylacetamido)hexyl]prop-2-enamide]: the “metabolic stability in liver microsomal stability testing” value in series [1] was “poor”; in series [4] (mouse, in words) it was “poor”. The microsomal CLint at 1 μM in [1] is > 1390 µL/min/mg; in series [4] (pooled liver microsomes, pH 7.4, mouse liver microsomes, 1 μM, 0.25 mg protein/mL, NADPH, read-out: mLM Clint), > 1390 µL/min/mg. In addition, the half-life at 1 μM in the series “Plasma stability (mouse)” (setting [5]) is > 8 h; in “Plasma stability (mouse)” (setting [6]) it was > 24 h; in the series “Plasma stability (human)” (setting [7]), > 8 h; in “Plasma stability (human)” (setting [8]), > 24 h. In addition, the “active efflux via P-gp” value at P-glycoprotein (P-gp) is listed as “high active efflux”. Also, on P-glycoprotein (P-gp), the “MDCK-MDR1 EER” value is reported as 7.1. The “solubility in a kinetic solubility assay” value in “kinetic solubility assay” is recorded as “good solubility”. Further, the “Aq. Sol.” value in “kinetic solubility assay” amounted to 0.06 mg/mL. Moreover, the Papp A→B at 10 μM in series [2] worked out at 303 nm/s. In addition, in series [3], the permeability entry is reported as “good permeability”. The half-maximal inhibitory concentration (IC50) on human TG2 (setting [9]) is < 0.1 µM; on human TG2 (Table 8, read-out: TG2 IC50), 0.06 µM.
